Data as given in the NIST ThermoML archive (doi:10.1016/j.jct.2016.10.005).
Numbers after ± are expanded uncertainties.

Assay: excess molar enthalpy (molar enthalpy of mixing); xn = mol fraction of the nth substance listed
Conditions: 100 kPa, Liquid, Flow calorimetry

C1CCCCC1 [cyclohexane] + CCCO
excess molar enthalpy [kcal/mol]
Conditions	298.15 K	313.15 K
x1 = 0.0503	0.0217 ± 0.00239	0.0256 ± 0.00263
x1 = 0.1005	0.0413 ± 0.00263	0.0497 ± 0.00263
x1 = 0.1499	0.059 ± 0.00263	0.0717 ± 0.00263
x1 = 0.2005	0.0755 ± 0.00263	0.0927 ± 0.00263
x1 = 0.2498	–	0.112 ± 0.00263
x1 = 0.2499	0.0903 ± 0.00263	–
x1 = 0.3004	–	0.129 ± 0.00263
x1 = 0.3005	0.104 ± 0.00263	–
x1 = 0.3502	–	0.145 ± 0.00263
x1 = 0.3503	0.116 ± 0.00263	–
x1 = 0.4001	–	0.159 ± 0.00287
x1 = 0.4003	0.127 ± 0.00263	–
x1 = 0.45	–	0.171 ± 0.00287
x1 = 0.4501	0.136 ± 0.00263	–
x1 = 0.4997	–	0.181 ± 0.00287
x1 = 0.4998	0.143 ± 0.00263	–
x1 = 0.5502	–	0.189 ± 0.00287
x1 = 0.5504	0.149 ± 0.00263	–
x1 = 0.6006	0.152 ± 0.00263	0.194 ± 0.00287
x1 = 0.6503	0.153 ± 0.00263	0.196 ± 0.00287
x1 = 0.6994	–	0.194 ± 0.00287
x1 = 0.6995	0.152 ± 0.00263	–
x1 = 0.7503	–	0.189 ± 0.00287
x1 = 0.8005	0.139 ± 0.00263	0.179 ± 0.00287
x1 = 0.8497	0.127 ± 0.00263	0.165 ± 0.00287
x1 = 0.9005	0.109 ± 0.00263	0.143 ± 0.00287
x1 = 0.9502	0.0827 ± 0.00263	0.11 ± 0.00287

CC1CCCCC1 [methylcyclohexane] + CCCO
excess molar enthalpy [kcal/mol]
Conditions	298.15 K	313.15 K
x1 = 0.0498	0.0179 ± 0.00239	0.0239 ± 0.00263
x1 = 0.1005	0.0344 ± 0.00239	0.0466 ± 0.00263
x1 = 0.1504	0.0495 ± 0.00239	–
x1 = 0.1505	–	0.0676 ± 0.00263
x1 = 0.2	0.0633 ± 0.00263	0.0872 ± 0.00263
x1 = 0.2504	0.0767 ± 0.00263	0.106 ± 0.00263
x1 = 0.3005	0.0889 ± 0.00263	0.123 ± 0.00263
x1 = 0.3501	0.1 ± 0.00263	–
x1 = 0.3502	–	0.139 ± 0.00263
x1 = 0.3998	0.11 ± 0.00263	0.153 ± 0.00287
x1 = 0.4503	0.12 ± 0.00263	0.166 ± 0.00287
x1 = 0.5004	0.127 ± 0.00263	–
x1 = 0.5005	–	0.177 ± 0.00287
x1 = 0.55	0.134 ± 0.00263	0.187 ± 0.00287
x1 = 0.5998	0.138 ± 0.00263	–
x1 = 0.5999	–	0.191 ± 0.00287
x1 = 0.6497	0.14 ± 0.00263	0.194 ± 0.00287
x1 = 0.6995	0.14 ± 0.00263	0.193 ± 0.00287
x1 = 0.7505	0.137 ± 0.00263	0.189 ± 0.00287
x1 = 0.7996	0.131 ± 0.00263	0.181 ± 0.00287
x1 = 0.8495	0.121 ± 0.00263	0.168 ± 0.00287
x1 = 0.9002	0.107 ± 0.00263	0.148 ± 0.00287
x1 = 0.9499	–	0.116 ± 0.00287
